Experiments:
HA-HaloTag-Smad5 = molecular target: T1, HA-HaloTag-Smad5 (Rhodococcus rhodochrous, UniProt P0A3G2, C176G/H272F/K175M/Y273L); assay: Zebrafish embryo HA-HaloTag-Smad5 degradation (immunoblot); type: in vivo, Danio rerio; conditions: 10 μM, 24 hours
T1 construct: The HaloTag protein was obtained from pHT2 vector (Promega); Danio rerio Smad5 (fusion partner); expressed in transfected cells; host or cells: zebrafish (TLF line) embryos injected with in vitro transcribed cRNA at the one-cell stage
Method: The wild-type fish line TLF was used for this study. The HA-HaloTag-Smad5 in pCS2+ plasmid was in vitro transcribed with the SP6 transcription kit (Ambion). The mRNA was injected at 100 ng/μL at the one cell stage and embryos were raised to the 256-cell stage, when they were moved to glass depression slides (10-per-well) and put in 1 ml E2 media with or without HyT13 (10 μM). Embryos were cultured at 28.6° C. for 24 hours and then dechorionated and de-yolked as described^43. Approximately 60 embryos per condition were collected for immunoblot analysis, as described above.
We also explored the possibility of employing the hydrophobic tagging system in the zebrafish Danio rerio. We injected HA-HaloTag-Smad5 cRNA into zebrafish embryos and then treated the embryos with either vehicle or HyT13.

[1] = molecular target: T2, HA-HaloTag(D106A)-H-RasG12V (UniProt P01112+P0A3G2, C176G/D106A/G12V/H272F/K175M/Y273L); assay: Immunoblotting of HA-HaloTag(D106A)-H-RasG12V in NIH-3T3 cells; type: cell-based; conditions: 1 μM, 24 hours
T2 construct: The HaloTag protein was obtained from pHT2 vector (Promega); H-Ras carrying G12V (fusion partner, same polypeptide); expressed in transfected cells; host or cells: NIH-3T3, retroviral infection (pEYK3.1)
Method: (§1) (a) NIH-3T3 cells were retrovirally infected with a construct expressing either HA-HaloTag-HRas(G12V) or HA-HaloTag(D106A)-HRas(G12V). The cells were then treated with vehicle or 1 μM HyT13 for 24 hours. The lysates were prepared for immunoblotting and the blots were probed with anti-HA and anti-β-actin antibodies. (b) One hundred thousand NIH-3T3 cells infected with HA-HaloTag-HRas(G12V) or HA-HaloTag(D106A)-HRas(G12V) were plated in 10% FBS containing medium onto 10-cm plates. The next day, the medium was replaced with 1% FBS containing medium, along with vehicle or 1 μM HyT13. The media was refreshed every 2 days, and the plates were pictured on day 6. Bar, 5 mm. (c) Quantification of foci as described in (b). The number of foci/cm^2 was counted from three separate plates, with error bars representing SEM. […] Tumor size was measured daily, and the tumor volume was calculated. […]
(§2) The indicated cells were washed twice with cold PBS and the cells were lysed in lysis buffer (1×PBS, 1% NP-40, 1 mM EDTA, 40 mM HEPES) with protease inhibitors. […] The total protein concentration was determined by Bradford assay and 50 μg of protein was loaded onto an 8% Bis-Tris gel. […] The blots were processed by standard procedures with indicated antibodies, and the band intensities were quantified by ImageJ. […]

HA-HaloTag-H-RasG12V = molecular target: T3, HA-HaloTag-H-RasG12V (Rhodococcus rhodochrous, UniProt P0A3G2, C176G/H272F/K175M/Y273L); assay: Immunoblotting of HA-HaloTag-H-RasG12V in NIH-3T3 cells; type: cell-based; conditions: 1 μM, 24 hours
T3 construct: The HaloTag protein was obtained from pHT2 vector (Promega); H-Ras carrying G12V (fusion partner, same polypeptide); expressed in transfected cells; host or cells: NIH-3T3, retroviral infection (pEYK3.1)
Method: as §1, §2

[2] = test system: NIH-3T3 cells infected with HA-HaloTag-H-RasG12V; assay: Focus formation assay, HA-HaloTag-H-RasG12V cells; type: cell-based, mouse; conditions: 1 μM, 1% FBS, day 6
Method: One hundred thousand NIH-3T3 cells infected with HA-HaloTag-H-RasG12V and HA-HaloTag(D106A)-H-RasG12V were plated onto 10-cm cell culture plates in 10% FBS with DMEM. The next day, the media was replaced with 1% FBS media and the cells were administered either vehicle or 1 μM HyT13. The media and the drug were replaced every two days. On day 6, the foci were photographed and counted as the number of distinct foci per 1-cm^2 area.
We next explored the functional utility of HaloTag-based degradation of an oncogene by HyT13 both in cell culture and in mice. The small GTPase H-Ras is one of the most commonly mutated genes in cancer, with up to […] of cancers harboring activating mutations in this gene^35. Activating mutations, such as the H-RasG12V allele, lead to decreased dependence on extracellular mitogenic signals. […] When H-RasG12V expressing cells are grown in culture under low serum conditions they lose cell-to-cell contact inhibition and form distinct foci instead of growing as a cellular monolayer. Furthermore, these transformed cells are capable of tumor formation when injected into immuno-compromised nude mice^36,37. We investigated whether (1) HaloTag-H-RasG12V driven focus formation can be suppressed in NIH-3T3 cells and (2) HaloTag-H-RasG12V driven tumor burden in mice can be reduced by administration of HyT13. […]

O=C(CC12CC3CC(CC(C3)C1)C2)NCCOCCOCCCCCCCl [HyT13, 2-((3r,5r,7r)-Adamantan-1-yl)-N-(2-(2-((6-chlorohexyl)oxy)ethoxy)ethyl)acetamide]
degradation of fusion protein in zebrafish embryos (HA-HaloTag-Smad5): very efficiently degraded | degradation of HA-HaloTag(D106A)-H-RasG12V [1]: unaffected | degradation of HA-HaloTag-H-RasG12V (HA-HaloTag-H-RasG12V): readily degraded | focus formation [2]: had grown a normal monolayer of cells
